Results published in PubChem BioAssay (NCI).
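Method: 48-hour compound exposure of cells in 96-well plates, five concentrations, linear interpolation of endpoints. Abbreviation: GI50, concentration required for 50% inhibition of growth. Definition used: TGI = concentration required for complete inhibition of growth.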

Key:
Test in all cases: NCI-60 cell line screen, 48 h
[1] = system: NCI-H522 lung
[2] = system: M14 melanoma
[3] = system: SK-MEL-2 melanoma
[4] = system: A498 renal
[5] = system: 786-0 renal
[6] = system: SNB-75 CNS
[7] = system: SW-620 colon
[8] = system: NCI/ADR-RES ovarian
[9] = system: SR leukemia
[10] = system: U251 CNS
[11] = system: TK-10 renal
[12] = system: SF-295 CNS
[13] = system: NCI-H226 lung
[14] = system: SK-MEL-28 melanoma
[15] = system: RXF 393 renal
[16] = system: UO-31 renal
[17] = system: OVCAR-4 ovarian
[18] = system: COLO 205 colon
[19] = system: HCC-2998 colon
[20] = system: HCT-116 colon
[21] = system: HL-60(TB) leukemia
[22] = system: EKVX NSCLC
[23] = system: MCF7 breast
[24] = system: SNB-19 CNS
[25] = system: HOP-92 NSCLC
[26] = system: SN12C renal
[27] = system: SK-OV-3 ovarian
[28] = system: MDA-MB-231 breast
[29] = system: UACC-62 melanoma
[30] = system: KM12 colon
[31] = system: HOP-62 NSCLC
[32] = system: OVCAR-5 ovarian
[33] = system: IGROV1 ovarian
[34] = system: SF-268 CNS
[35] = system: LOX IMVI melanoma
[36] = system: A549 NSCLC
[37] = system: MOLT-4 leukemia
[38] = system: HS 578T breast
[39] = system: RPMI-8226 leukemia
[40] = system: K-562 leukemia
[41] = system: ACHN renal
[42] = system: UACC-257 melanoma
[43] = system: HT29 colon
[44] = system: OVCAR-8 ovarian
[45] = system: SF-539 CNS
[46] = system: MDA-MB-435
[47] = system: MALME-3M melanoma
[48] = system: NCI-H23 lung
[49] = system: CAKI-1 renal
[50] = system: OVCAR-3 ovarian
[51] = system: NCI-H460 lung
[52] = system: CCRF-CEM leukemia
[53] = system: DU-145 prostate
[54] = system: T-47D breast
[55] = system: SK-MEL-5 melanoma
[56] = system: HCT-15 colon
[57] = system: PC-3 prostate

O=C1C=CC(=O)C2C1C1(Cl)C(Cl)=C(Cl)C2(Cl)C1(Cl)Cl (centres undefined)
GI50 [1]: 3.73 µM
TGI [1]: 13.1 µM
GI50 [2]: 3.35 µM
TGI [2]: 13.3 µM
GI50 [3]: 3.18 µM
TGI [3]: 8.99 µM
GI50 [4]: 1460 nM
TGI [4]: 5.8 µM
GI50 [5]: 12.5 µM
TGI [5]: 30.1 µM
GI50 [6]: 1130 nM
TGI [6]: 5.48 µM
GI50 [7]: 3.94 µM
TGI [7]: 15.1 µM
GI50 [8]: 3.75 µM
TGI [8]: > 100 µM
GI50 [9]: 2530 nM
TGI [9]: 12.3 µM
GI50 [10]: 5.76 µM
TGI [10]: 19.1 µM
GI50 [11]: 8.07 µM
TGI [11]: 81 µM
GI50 [12]: 1910 nM
TGI [12]: 6.62 µM
GI50 [13]: 10.8 µM
TGI [13]: 49.1 µM
GI50 [14]: 9.63 µM
TGI [14]: 21.8 µM
GI50 [15]: 3.66 µM
TGI [15]: 12 µM
GI50 [16]: 3.41 µM
TGI [16]: 16.1 µM
GI50 [17]: 7.38 µM
TGI [17]: > 100 µM
GI50 [18]: 11.5 µM
TGI [18]: 27.2 µM
GI50 [19]: 6.45 µM
TGI [19]: 20.4 µM
GI50 [20]: 3.51 µM
TGI [20]: 14.6 µM
GI50 [21]: 2710 nM
TGI [21]: 11 µM
GI50 [22]: 1560 nM
TGI [22]: 7.48 µM
GI50 [23]: 8.55 µM
TGI [23]: 31.1 µM
GI50 [24]: 11.2 µM
TGI [24]: 25.4 µM
GI50 [25]: 1690 nM
TGI [25]: 6.88 µM
GI50 [26]: 6 µM
TGI [26]: 25.6 µM
GI50 [27]: 7.85 µM
TGI [27]: 21.1 µM
GI50 [28]: 3.62 µM
TGI [28]: 16.4 µM
GI50 [29]: 5.19 µM
TGI [29]: 19.2 µM
GI50 [30]: 2630 nM
TGI [30]: 8.95 µM
GI50 [31]: 10.6 µM
TGI [31]: 26.2 µM
GI50 [32]: 12.4 µM
TGI [32]: 31.1 µM
GI50 [33]: 2920 nM
TGI [33]: 19.2 µM
GI50 [34]: 3.16 µM
TGI [34]: 14.8 µM
GI50 [35]: 4.05 µM
TGI [35]: 16.2 µM
GI50 [36]: 5.5 µM
TGI [36]: 26.5 µM
GI50 [37]: 2540 nM
TGI [37]: 14.4 µM
GI50 [38]: 2510 nM
TGI [38]: 7.92 µM
GI50 [39]: 4.78 µM
TGI [39]: > 100 µM
GI50 [40]: 2580 nM
TGI [40]: 10.8 µM
GI50 [41]: 4.18 µM
TGI [41]: 18.3 µM
GI50 [42]: 6.82 µM
TGI [42]: 20 µM
GI50 [43]: 7.54 µM
TGI [43]: 23.9 µM
GI50 [44]: 10.1 µM
TGI [44]: 48.6 µM
GI50 [45]: 6.46 µM
TGI [45]: 23.2 µM
GI50 [46]: 1690 nM
TGI [46]: 4.06 µM
GI50 [47]: 3.23 µM
TGI [47]: 15.8 µM
GI50 [48]: 4.85 µM
TGI [48]: 26.3 µM
GI50 [49]: 2840 nM
TGI [49]: 12.1 µM
GI50 [50]: 2030 nM
TGI [50]: 5.08 µM
GI50 [51]: 3.06 µM
TGI [51]: 9.04 µM
GI50 [52]: 3.76 µM
TGI [52]: > 100 µM
GI50 [53]: 3.73 µM
TGI [53]: 15.6 µM
GI50 [54]: 4.95 µM
TGI [54]: 22.7 µM
GI50 [55]: 6.61 µM
TGI [55]: 19.4 µM
GI50 [56]: 4.11 µM
TGI [56]: 22.4 µM
GI50 [57]: 2730 nM
TGI [57]: 20 µM
